Values joined by “and” are separate entries in the source; they are usually repeats but may differ in a detail not shown here. Equal values may be shown once.
Test system: Swiss mice, Sarcoma 180 sc, mean tumor weight T/C
Test: NCI In Vivo Anticancer Drug Screen. Data for tumor model Sarcoma 180 (subcutaneous) in Swiss mice
Conditions: endpoint: mean tumor weight, higher = larger tumour
Procedure, shortened: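 Tumor-bearing mice, transplantable tumor; readout survival or tumor size; result = T/C, treated vs vehicle control.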

## CCCn1cnc2c(=S)nc[nH]c21
dose: 43.0 mg/kg/injection, schedule: Q01DX007 (ip), vehicle: carboxymethylcellulose (CMC)
  T/C: 75 % of control
dose: 61.0 mg/kg/injection, schedule: Q01DX007 (ip), vehicle: carboxymethylcellulose (CMC)
  T/C: 44 % of control
dose: 93.0 mg/kg/injection, schedule: Q01DX007 (ip), vehicle: carboxymethylcellulose (CMC)
  T/C: 35 % of control
dose: 140.0 mg/kg/injection, schedule: Q01DX007 (ip), vehicle: carboxymethylcellulose (CMC)
  T/C: 28 % of control

## CO[C@H]1C[C@H](O[C@H]2CC[C@]3(C=O)[C@H]4CC[C@]5(C)[C@@H](C6=CC(=O)OC6)CC[C@]5(O)[C@@H]4CC[C@]3(O)C2)O[C@H](C)[C@H]1O
dose: 2.5 mg/kg/injection, schedule: Q01DX007 (sc), vehicle: saline
  T/C: 86 % of control
dose: 5.0 mg/kg/injection, schedule: Q01DX007 (sc), vehicle: saline
  T/C: 62 % of control

## CC1C[C@@H]2[C@H]([C@@H](O)C[C@@]3(C)[C@H]2CC[C@]3(O)C(=O)CF)[C@@]2(C)CCC(=O)C=C12 (some centres undefined)
dose: 5.2 mg/kg/injection, schedule: Q01DX007 (sc), vehicle: steriod suspending solution
  T/C: 106 % of control
dose: 10.5 mg/kg/injection, schedule: Q01DX007 (sc), vehicle: steriod suspending solution
  T/C: 105 % of control
dose: 21.2 mg/kg/injection, schedule: Q01DX007 (sc), vehicle: steriod suspending solution
  T/C: 81 % of control
dose: 42.5 mg/kg/injection, schedule: Q01DX007 (sc), vehicle: steriod suspending solution
  T/C: 45 % of control
dose: 62.0 mg/kg/injection, schedule: Q#A X014 (sc), vehicle: steriod suspending solution
  T/C: 55 % of control and 57 % of control
dose: 85.0 mg/kg/injection, schedule: Q01DX007 (sc), vehicle: steriod suspending solution
  T/C: 25 % of control
dose: 93.5 mg/kg/injection, schedule: Q#A X014 (sc), vehicle: steriod suspending solution
  T/C: 36 % of control and 41 % of control and 50 % of control
dose: 210.75 mg/kg/injection, schedule: Q#A X014 (sc), vehicle: steriod suspending solution
  T/C: 38 % of control and 52 % of control
dose: 300.0 mg/kg/injection, schedule: Q01DX007 (sc), vehicle: steriod suspending solution
  T/C: 26 % of control
dose: 600.0 mg/kg/injection, schedule: Q01DX007 (sc), vehicle: steriod suspending solution
  T/C: 20 % of control

## O=C(O)c1[nH]c(=O)[nH]c(=O)c1F
dose: 3.35 mg/kg/injection, schedule: Q#A X014 (ip), vehicle: methylcellulose (MC)
  T/C: 62 % of control
dose: 5.0 mg/kg/injection, schedule: Q#A X014 (ip), vehicle: methylcellulose (MC)
  T/C: 49 % of control
dose: 7.5 mg/kg/injection, schedule: Q#A X014 (ip), vehicle: methylcellulose (MC)
  T/C: 46 % of control
dose: 11.25 mg/kg/injection, schedule: Q#A X014 (ip), vehicle: methylcellulose (MC)
  T/C: 22 % of control

## COC(=O)CC(C(=O)C=[N+]=[N-])N1C(=O)c2ccccc2C1=O (centres undefined)
dose: 0.03 mg/kg/injection, schedule: Q01DX007 (ip), vehicle: carboxymethylcellulose (CMC)
  T/C: 112 % of control
dose: 0.05 mg/kg/injection, schedule: Q01DX007 (ip), vehicle: carboxymethylcellulose (CMC)
  T/C: 89 % of control
dose: 0.1 mg/kg/injection, schedule: Q01DX007 (ip), vehicle: carboxymethylcellulose (CMC)
  T/C: 101 % of control
dose: 0.2 mg/kg/injection, schedule: Q01DX007 (ip), vehicle: carboxymethylcellulose (CMC)
  T/C: 95 % of control and 102 % of control
dose: 0.4 mg/kg/injection, schedule: Q01DX007 (ip), vehicle: carboxymethylcellulose (CMC)
  T/C: 115 % of control
dose: 0.8 mg/kg/injection, schedule: Q01DX007 (ip), vehicle: carboxymethylcellulose (CMC)
  T/C: 88 % of control and 91 % of control
dose: 3.2 mg/kg/injection, schedule: Q01DX007 (ip), vehicle: carboxymethylcellulose (CMC)
  T/C: 99 % of control
dose: 6.4 mg/kg/injection, schedule: Q01DX007 (ip), vehicle: carboxymethylcellulose (CMC)
  T/C: 70 % of control and 83 % of control
dose: 12.8 mg/kg/injection, schedule: Q01DX007 (ip), vehicle: carboxymethylcellulose (CMC)
  T/C: 87 % of control
dose: 25.6 mg/kg/injection, schedule: Q01DX007 (ip), vehicle: carboxymethylcellulose (CMC)
  T/C: 84 % of control

## O=C(Nc1ccc(NC2=NCCN2)cc1)c1ccc(C(=O)Nc2ccc(NC3=NCCN3)cc2)cc1
dose: 2.0 mg/kg/injection, schedule: Q01DX007 (ip), vehicle: saline
  T/C: 109 % of control
dose: 4.0 mg/kg/injection, schedule: Q01DX007 (ip), vehicle: saline
  T/C: 95 % of control
dose: 8.0 mg/kg/injection, schedule: Q01DX007 (ip), vehicle: saline
  T/C: 97 % of control
dose: 16.0 mg/kg/injection, schedule: Q01DX007 (ip), vehicle: saline
  T/C: 43 % of control

— PubChem BioAssay AID342 (DTP/NCI, 2004)
